Experimental data published in patent US20230117034A1, “PYRAZOLOTRIAZINES” (Bayer Aktiengesellschaft, priority 2019, published 2023).

Key:
[1] = tested on: BRCA1 mRNA expression in MDA-MB-231 cells; assay: qRT-PCR assay: BRCA1 mRNA expression in MDA-MB-231; assay type: cell-based, human; settings: Homo sapiens, MDA-MB-231, Inhibition of BRCA1 mRNA expression in MDA-MB-231 cells; median; read-out: RTqPCR-MDA-MB-231, IC50, BRCA1 (median)
How it was run: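 Human breast cancer cells, 200,000/well, were treated with test agents for 24 h without interruption after a 24 h settling period. Gene expression came from qPCR on cDNA made from 600 ng RNA, relative to GAPDH.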

[2] = tested on: CAL-120, human breast adenocarcinoma cells; assay: Proliferation assay CAL-120 (crystal violet, 4 days); assay type: cell-based; settings: Homo sapiens, CAL-120, 96 h, CAL-120 cells, median, read-out: Prolif-CAL-120, IC50-[mol/l] (median)
How it was run: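 Crystal violet proliferation read-out after 4 days of compound exposure (0.01-10 µmol/L; solvent 0.1% DMSO). Extinction at 595 nm, set between zero-point (0%) and vehicle (100%), fitted with 4 parameters to give IC50.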

[3] = molecular target: T1, CDK12 (nuclear staining in CAL-120 cells) (Homo sapiens, UniProt Q9NYV4); assay: CDK12 nuclear protein level: immunofluorescence/high content analysis (CAL-120); assay type: cell-based; settings: for DC50: CAL-120 cells, 24 h, immunofluorescence, 50% reduction of nuclear CDK12 staining intensity, median, read-out: CDK12 degradation IF, DC50- [mol/l] (median); for (IC50 CDK12 high ATP) to (Degradation DC50 CDK12) ratio: ratio of IC50 CDK12 high ATP kinase assay to DC50 CDK12 degradation (IF, CAL-120)
T1 construct: endogenous in cells; host or cells: CAL-120 human breast cancer cells (DSMZ ACC 459)
T1 sequence (Q9NYV4 whole entry): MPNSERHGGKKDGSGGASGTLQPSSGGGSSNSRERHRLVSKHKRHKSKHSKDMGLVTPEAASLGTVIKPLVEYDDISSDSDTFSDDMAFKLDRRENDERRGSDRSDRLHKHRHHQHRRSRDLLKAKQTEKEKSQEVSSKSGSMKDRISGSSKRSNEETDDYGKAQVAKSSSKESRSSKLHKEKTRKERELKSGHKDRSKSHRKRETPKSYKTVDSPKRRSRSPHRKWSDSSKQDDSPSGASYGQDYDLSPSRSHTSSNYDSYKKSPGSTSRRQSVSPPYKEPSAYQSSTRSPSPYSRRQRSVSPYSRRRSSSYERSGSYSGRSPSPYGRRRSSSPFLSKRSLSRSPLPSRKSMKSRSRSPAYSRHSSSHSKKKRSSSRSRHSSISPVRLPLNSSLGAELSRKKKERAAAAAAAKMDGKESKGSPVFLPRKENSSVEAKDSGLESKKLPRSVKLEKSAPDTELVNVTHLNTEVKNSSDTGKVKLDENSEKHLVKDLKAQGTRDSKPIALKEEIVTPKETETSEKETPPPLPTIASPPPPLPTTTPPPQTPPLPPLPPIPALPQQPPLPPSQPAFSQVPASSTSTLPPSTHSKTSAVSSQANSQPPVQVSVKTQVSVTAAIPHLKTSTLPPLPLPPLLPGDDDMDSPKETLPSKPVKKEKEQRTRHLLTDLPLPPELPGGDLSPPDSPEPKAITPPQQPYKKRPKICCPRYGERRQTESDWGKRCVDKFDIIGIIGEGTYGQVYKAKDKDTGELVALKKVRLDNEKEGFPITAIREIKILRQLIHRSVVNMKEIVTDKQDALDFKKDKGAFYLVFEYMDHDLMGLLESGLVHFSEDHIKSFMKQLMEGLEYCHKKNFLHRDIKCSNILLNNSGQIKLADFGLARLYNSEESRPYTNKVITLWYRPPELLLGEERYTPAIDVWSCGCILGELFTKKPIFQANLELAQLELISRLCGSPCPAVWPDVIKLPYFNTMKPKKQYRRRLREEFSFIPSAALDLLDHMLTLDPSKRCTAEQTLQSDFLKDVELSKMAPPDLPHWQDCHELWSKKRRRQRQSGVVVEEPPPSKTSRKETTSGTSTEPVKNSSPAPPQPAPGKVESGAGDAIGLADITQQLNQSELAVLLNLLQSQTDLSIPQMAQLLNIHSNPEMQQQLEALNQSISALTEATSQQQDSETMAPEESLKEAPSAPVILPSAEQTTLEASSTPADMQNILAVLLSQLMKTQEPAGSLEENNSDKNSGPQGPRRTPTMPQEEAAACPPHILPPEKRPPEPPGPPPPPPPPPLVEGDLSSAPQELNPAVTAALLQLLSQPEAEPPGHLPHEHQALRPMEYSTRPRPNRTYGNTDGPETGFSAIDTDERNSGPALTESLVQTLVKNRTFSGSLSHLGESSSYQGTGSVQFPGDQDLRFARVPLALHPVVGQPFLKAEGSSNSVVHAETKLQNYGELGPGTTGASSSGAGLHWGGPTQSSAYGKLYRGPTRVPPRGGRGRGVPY
T1 sequence (O75909 whole entry partner): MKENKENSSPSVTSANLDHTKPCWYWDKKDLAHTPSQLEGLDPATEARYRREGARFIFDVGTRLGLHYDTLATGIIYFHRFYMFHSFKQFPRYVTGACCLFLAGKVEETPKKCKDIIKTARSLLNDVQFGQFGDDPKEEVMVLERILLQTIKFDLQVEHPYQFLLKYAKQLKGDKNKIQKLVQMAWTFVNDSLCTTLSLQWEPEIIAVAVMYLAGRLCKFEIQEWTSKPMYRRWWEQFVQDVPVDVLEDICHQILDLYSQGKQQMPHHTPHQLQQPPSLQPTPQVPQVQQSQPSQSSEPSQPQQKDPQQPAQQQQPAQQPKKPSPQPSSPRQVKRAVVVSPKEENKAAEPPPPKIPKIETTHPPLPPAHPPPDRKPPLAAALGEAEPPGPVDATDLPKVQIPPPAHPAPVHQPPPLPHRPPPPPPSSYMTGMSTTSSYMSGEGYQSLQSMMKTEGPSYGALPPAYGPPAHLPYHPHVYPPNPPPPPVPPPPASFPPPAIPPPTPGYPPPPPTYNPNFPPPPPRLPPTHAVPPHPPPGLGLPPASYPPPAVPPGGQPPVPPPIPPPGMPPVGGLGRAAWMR
How it was run: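 DC50 is the degrader concentration that halves nuclear CDK12 immunofluorescence relative to controls, measured by high-content imaging. CAL-120 cells were exposed to compound for 24 h at 37 °C before PFA fixation, and signal was normalized to DMSO and control wells.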

[4] = molecular target: T2, CYCLIN K (nuclear staining in CAL-120 cells) (Homo sapiens, UniProt O75909); assay: CYCLIN K nuclear protein level: immunofluorescence high content analysis (CAL-120); assay type: cell-based; settings: 24 h, 50% reduction of nuclear CCNK staining intensity, median, read-out: CYCLIN K degradation IF, DC50-[mol/l] (median)
T2 construct: endogenous in cells; host or cells: CAL-120 human breast cancer cells (DSMZ ACC 459)
T2 sequence (O75909 whole entry): as the sequence (O75909 whole entry partner) above
T2 sequence (Q9NYV4 whole entry partner): as the sequence (Q9NYV4 whole entry) above
How it was run: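 Readout is automated confocal image analysis of nuclear cyclin K immunofluorescence (Hoechst nuclei) after PFA fixation. Cells were CAL-120, exposed to compound dose-response 24 h at 37 °C; values are DC50 for halving nuclear CCNK signal relative to DMSO and control wells.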

Cc1cc2nc(CNc3nc(N(C)CC(C)(C)O)nc4c(Br)cnn34)[nH]c2cc1C [Example 343, 1-[(8-bromo-4-{[(5,6-dimethyl-1H-benzimidazol-2-yl)methyl]amino}pyrazolo[1,5-a][1,3,5]triazin-2-yl)(methyl)amino]-2-methylpropan-2-ol]
IC50 [1]: 1.91 nM | IC50 [2]: 1.82 nM | DC50 [3]: 3.56 nM | (IC50 CDK12 high ATP) to (Degradation DC50 CDK12) ratio [3]: 53 | DC50 [4]: 0.0978 nM

Cc1cc2nc(CNc3nc(N4CC5CCC(C4)N5)nc4c(Br)cnn34)[nH]c2cc1C [Example 353, 8-bromo-2-(3,8-diazabicyclo[3.2.1]octan-3-yl)-N-[(5,6-dimethyl-1H-benzimidazol-2-yl)methyl]pyrazolo[1,5-a][1,3,5]triazin-4-amine]
IC50 [1]: 2.39 nM | IC50 [2]: 1.41 nM | DC50 [3]: 12.4 nM | (IC50 CDK12 high ATP) to (Degradation DC50 CDK12) ratio [3]: 203 | DC50 [4]: 0.644 nM

Brc1cnn2c(NCc3nc4ccccc4[nH]3)nc(N3CCN4CCC3CC4)nc12 [Example 349, N-[(1H-benzimidazol-2-yl)methyl]-8-bromo-2-(1,4-diazabicyclo[3.2.2]nonan-4-yl)pyrazolo[1,5-a][1,3,5]triazin-4-amine]
IC50 [1]: 15.6 nM | IC50 [2]: 3.76 nM | DC50 [3]: 9.89 nM | (IC50 CDK12 high ATP) to (Degradation DC50 CDK12) ratio [3]: 877 | DC50 [4]: 0.784 nM

CN1CCN(c2nc(NCc3nc4c(F)c(Cl)ccc4[nH]3)n3ncc(Br)c3n2)CC1 [Example 373, 8-bromo-N-[(5-chloro-4-fluoro-1H-benzimidazol-2-yl)methyl]-2-(4-methylpiperazin-1-yl)pyrazolo[1,5-a][1,3,5]triazin-4-amine]
IC50 [1]: 1.27 nM | IC50 [2]: 1.93 nM | DC50 [3]: 1.12 nM | (IC50 CDK12 high ATP) to (Degradation DC50 CDK12) ratio [3]: 2719 | DC50 [4]: 0.0805 nM

CN(CC(C)(C)O)c1nc(NCc2nc3cc(F)c(F)cc3[nH]2)n2ncc(C3CC3)c2n1 [Example 319, 1-[(8-cyclopropyl-4-{[(5,6-difluoro-1H-benzimidazol-2-yl)methyl]amino}pyrazolo[1,5-a][1,3,5]triazin-2-yl)(methyl)amino]-2-methylpropan-2-ol]
IC50 [1]: 9.97 nM | IC50 [2]: 2.87 nM | DC50 [3]: 3.06 nM | (IC50 CDK12 high ATP) to (Degradation DC50 CDK12) ratio [3]: 780 | DC50 [4]: 0.492 nM

CN1CCN(c2nc(NCc3nc4cc(C(F)(F)F)ccc4[nH]3)n3ncc(Br)c3n2)CC1 [Example 344, 8-bromo-2-(4-methylpiperazin-1-yl)-N-{[5-(trifluoromethyl)-1H-benzimidazol-2-yl]methyl}pyrazolo[1,5-a][1,3,5]triazin-4-amine]
IC50 [1]: 2.34 nM | IC50 [2]: 2.7 nM | DC50 [3]: 6.69 nM | (IC50 CDK12 high ATP) to (Degradation DC50 CDK12) ratio [3]: 1251 | DC50 [4]: 0.392 nM

CN1CCN(c2nc(NCc3nc4cc(Cl)c(Cl)cc4[nH]3)n3ncc(Br)c3n2)CC1 [Example 330, 8-bromo-N-[(5,6-dichloro-1H-benzimidazol-2-yl)methyl]-2-(4-methylpiperazin-1-yl)pyrazolo[1,5-a][1,3,5]triazin-4-amine]
IC50 [1]: 5.68 nM | IC50 [2]: 2.44 nM | DC50 [3]: 2.89 nM | (IC50 CDK12 high ATP) to (Degradation DC50 CDK12) ratio [3]: 1601 | DC50 [4]: 0.16 nM

Fc1ccc2[nH]c(CNc3nc(N4CCOCC4)nc4c(Cl)cnn34)nc2c1F [Example 357]
IC50 [1]: 6.05 nM | IC50 [2]: 4.33 nM | DC50 [3]: 3.9 nM | (IC50 CDK12 high ATP) to (Degradation DC50 CDK12) ratio [3]: 295 | DC50 [4]: 0.552 nM

Fc1c(Cl)ccc2[nH]c(CNc3nc(N4CCOCC4)nc4c(Br)cnn34)nc12 [Example 372, 8-bromo-N-[(5-chloro-4-fluoro-1H-benzimidazol-2-yl)methyl]-2-(morpholin-4-yl)pyrazolo[1,5-a][1,3,5]triazin-4-amine]
IC50 [1]: 2.16 nM | IC50 [2]: 2.94 nM | DC50 [3]: 2.44 nM | (IC50 CDK12 high ATP) to (Degradation DC50 CDK12) ratio [3]: 110 | DC50 [4]: 0.227 nM

Fc1cc2nc(CNc3nc(N4CCOCC4)nc4c(C(F)(F)F)cnn34)[nH]c2cc1F [Example 333, N-[(5,6-difluoro-1H-benzimidazol-2-yl)methyl]-2-(morpholin-4-yl)-8-(trifluoromethyl)pyrazolo[1,5-a][1,3,5]triazin-4-amine]
IC50 [1]: 1.8 nM | IC50 [2]: 3.1 nM | DC50 [3]: 2.31 nM | (IC50 CDK12 high ATP) to (Degradation DC50 CDK12) ratio [3]: 61 | DC50 [4]: 0.113 nM

CN1C2CCC1CN(c1nc(NCc3nc4c(F)c(F)ccc4[nH]3)n3ncc(C(F)(F)F)c3n1)C2 [Example 356, N-[(4,5-difluoro-1H-benzimidazol-2-yl)methyl]-2-(8-methyl-3,8-diazabicyclo[3.2.1]octan-3-yl)-8-(trifluoromethyl)pyrazolo[1,5-a][1,3,5]triazin-4-amine]
IC50 [1]: 5.05 nM | IC50 [2]: 2.1 nM | DC50 [3]: 6.68 nM | (IC50 CDK12 high ATP) to (Degradation DC50 CDK12) ratio [3]: 734 | DC50 [4]: 2.01 nM

Fc1ccc2[nH]c(CNc3nc(N4CC5CCC(C4)N5)nc4c(Cl)cnn34)nc2c1F.O=CO [Example 360, formic acid 8-chloro-2-(3,8-diazabicyclo[3.2.1]octan-3-yl)-N-[(4,5-difluoro-1H-benzimidazol-2-yl)methyl]pyrazolo[1,5-a][1,3,5]triazin-4-amine]
IC50 [1]: 1.03 nM | IC50 [2]: 2.24 nM | DC50 [3]: 6.45 nM | (IC50 CDK12 high ATP) to (Degradation DC50 CDK12) ratio [3]: 622 | DC50 [4]: 0.709 nM

Fc1cc2nc(CNc3nc(N4CCOCC4)nc4c(Br)cnn34)[nH]c2cc1F [Example 341, 8-bromo-N-[(5,6-difluoro-1H-benzimidazol-2-yl)methyl]-2-(morpholin-4-yl)pyrazolo[1,5-a][1,3,5]triazin-4-amine]
IC50 [1]: 5.13 nM | IC50 [2]: < 0.1 nM | DC50 [3]: 3.55 nM | (IC50 CDK12 high ATP) to (Degradation DC50 CDK12) ratio [3]: 624 | DC50 [4]: 0.29 nM

CN1CCN(c2nc(NCc3nc4cc(F)c(F)cc4[nH]3)n3ncc(Br)c3n2)CC1 [Example 346, 8-bromo-N-[(5,6-difluoro-1H-benzimidazol-2-yl)methyl]-2-(4-methylpiperazin-1-yl)pyrazolo[1,5-a][1,3,5]triazin-4-amine]
IC50 [1]: 3.02 nM | IC50 [2]: 2.66 nM | DC50 [3]: 2.35 nM | (IC50 CDK12 high ATP) to (Degradation DC50 CDK12) ratio [3]: 5220 | DC50 [4]: 0.149 nM

Fc1cc2nc(CNc3nc(N4CCOCC4)nc4c(Br)cnn34)[nH]c2cc1Cl [Example 336, 8-bromo-N-[(6-chloro-5-fluoro-1H-benzimidazol-2-yl)methyl]-2-(morpholin-4-yl)pyrazolo[1,5-a][1,3,5]triazin-4-amine]
IC50 [1]: 8 nM | IC50 [2]: 3.21 nM | DC50 [3]: 3.08 nM | (IC50 CDK12 high ATP) to (Degradation DC50 CDK12) ratio [3]: 256 | DC50 [4]: 0.52 nM

Cc1cc2nc(CNc3nc(N4CCOCC4)nc4c(Br)cnn34)[nH]c2cc1C [Example 340, 8-bromo-N-[(5,6-dimethyl-1H-benzimidazol-2-yl)methyl]-2-(morpholin-4-yl)pyrazolo[1,5-a][1,3,5]triazin-4-amine]
IC50 [1]: 8.16 nM | IC50 [2]: 3.36 nM | DC50 [3]: 7.8 nM | (IC50 CDK12 high ATP) to (Degradation DC50 CDK12) ratio [3]: 79 | DC50 [4]: 0.827 nM

CN(CC(C)(C)O)c1nc(NCc2nc3cc(Cl)c(Cl)cc3[nH]2)n2ncc(Br)c2n1 [Example 331, 1-[(8-bromo-4-{[(5,6-dichloro-1H-benzimidazol-2-yl)methyl]amino}pyrazolo[1,5-a][1,3,5]triazin-2-yl)(methyl)amino]-2-methylpropan-2-ol]
IC50 [1]: 2.56 nM | IC50 [2]: 3.08 nM | DC50 [3]: 6 nM | (IC50 CDK12 high ATP) to (Degradation DC50 CDK12) ratio [3]: 58 | DC50 [4]: 0.44 nM

CC(C)c1cnn2c(NCc3ncc(-c4ccccc4)[nH]3)nc(N3CCOCC3)nc12 [Example 30, 2-(morpholin-4-yl)-N-[(5-phenyl-1H-imidazol-2-yl)methyl]-8-(propan-2-yl)pyrazolo[1,5-a][1,3,5]triazin-4-amine]
IC50 [1]: 28.5 nM | DC50 [3]: 25.7 nM | (IC50 CDK12 high ATP) to (Degradation DC50 CDK12) ratio [3]: 115 | DC50 [4]: 4.1 nM

Cc1[nH]c(CNc2nc(N3CCOCC3)nc3c(Br)cnn23)nc1-c1ccccc1 [Example 27, 8-bromo-N-[(5-methyl-4-phenyl-1H-imidazol-2-yl)methyl]-2-(morpholin-4-yl)pyrazolo[1,5-a][1,3,5]triazin-4-amine]
IC50 [1]: 165 nM | DC50 [3]: 128 nM | (IC50 CDK12 high ATP) to (Degradation DC50 CDK12) ratio [3]: 27 | DC50 [4]: 66.3 nM

Cc1cc2nc(CNc3nc(N4CCOCC4)nc4c(C5CC5)cnn34)[nH]c2cc1C [Example 320, 8-cyclopropyl-N-[(5,6-dimethyl-1H-benzimidazol-2-yl)methyl]-2-(morpholin-4-yl)pyrazolo[1,5-a][1,3,5]triazin-4-amine]
IC50 [1]: 3.59 nM | IC50 [2]: 4.24 nM | DC50 [3]: 4.28 nM | (IC50 CDK12 high ATP) to (Degradation DC50 CDK12) ratio [3]: 130
